Measured values as given in US20190274334A1 (MARS, INCORPORATED, priority 2016, published 2019).
Several values for one entry are separate records, joined by “and”; a condition that tells them apart may be missing. Equal values may be shown once. Read-outs that look alike come from different tables or passages of the source. *1 amine or outer side, *2 acyl side, *3 side chain or, on linkers, in order; H or OH if unused. Where a SMILES comes first, the peptide text is derived from it. [ ]: non-standard residue; d: D form. γGlu = O=C(O)[C@H](CCC(=O)[*:2])N[*:1]; Abu = CC[C@H](N)C(=O)O

Columns and labels:
feline CaSR (f:CaSR) [1] = biological target: T1, feline CaSR (f:CaSR) (Felis catus, UniProt A0ABI7YY68); assay: cell-based; type: cell-based
T1 sequence (A0ABI7YY68 entry or part of it): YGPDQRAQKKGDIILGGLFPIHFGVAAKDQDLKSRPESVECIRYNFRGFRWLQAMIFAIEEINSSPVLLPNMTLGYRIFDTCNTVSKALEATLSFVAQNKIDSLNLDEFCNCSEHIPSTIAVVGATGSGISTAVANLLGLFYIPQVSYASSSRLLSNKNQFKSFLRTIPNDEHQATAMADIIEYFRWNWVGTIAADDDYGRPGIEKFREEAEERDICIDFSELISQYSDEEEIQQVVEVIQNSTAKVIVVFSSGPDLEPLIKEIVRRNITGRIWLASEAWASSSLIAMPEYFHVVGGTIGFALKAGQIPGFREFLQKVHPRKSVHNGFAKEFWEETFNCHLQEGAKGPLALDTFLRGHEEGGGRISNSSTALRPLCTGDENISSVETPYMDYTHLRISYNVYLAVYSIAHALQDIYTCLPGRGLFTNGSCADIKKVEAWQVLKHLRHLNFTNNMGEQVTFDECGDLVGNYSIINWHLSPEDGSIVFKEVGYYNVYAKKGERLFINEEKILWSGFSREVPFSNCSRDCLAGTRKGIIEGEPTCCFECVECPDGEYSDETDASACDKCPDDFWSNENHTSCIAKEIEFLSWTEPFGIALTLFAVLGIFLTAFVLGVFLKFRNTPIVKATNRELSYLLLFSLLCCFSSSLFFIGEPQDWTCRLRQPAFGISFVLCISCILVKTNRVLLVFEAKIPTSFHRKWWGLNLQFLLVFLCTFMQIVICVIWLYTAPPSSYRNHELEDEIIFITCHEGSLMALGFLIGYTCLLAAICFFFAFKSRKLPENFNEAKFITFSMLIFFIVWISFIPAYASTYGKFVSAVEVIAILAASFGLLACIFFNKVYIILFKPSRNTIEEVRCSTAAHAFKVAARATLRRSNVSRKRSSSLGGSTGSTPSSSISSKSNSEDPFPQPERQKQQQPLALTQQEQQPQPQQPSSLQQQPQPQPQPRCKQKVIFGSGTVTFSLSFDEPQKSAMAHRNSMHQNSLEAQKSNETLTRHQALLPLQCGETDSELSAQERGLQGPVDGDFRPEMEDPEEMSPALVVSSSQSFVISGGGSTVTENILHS
feline CaSR (f:CaSR) [2] = biological target: T1, feline CaSR (f:CaSR); assay: in vitro PAM testing of amino acids on feline CaSR, single-injection protocol, shift of calcium EC50; type: cell-based; conditions: for EC50: CaCl2 alone, control of the same experiment, read-out: EC50 of Ca^2+ before the shift (without amino acid)
Protocol: Methods: HEK293TRex/nat-Clytin cells that inducibly express a feline CaSR (f:CaSR) transgene construct was used to screen 30 amino acids to identify compounds that modulate f:CaSR activity. […] The HEK293 cells were seeded at 10,000 cells/well in 384 MTP. 24 hours after cell seeding, cells were loaded with 10 μm coelenterazine in an assay buffer (20 μL/well) for 4 h at room temperature. […] CaCl2 alone was used as a control.
PAM mode (single-injection): Test compound (6× concentrated) and CaCl2 (6× concentrated) were directly mixed 1:1 on the compound plate to get a 3× concentrated working solution of each test compound and control. 10 μl/well of the test compound or control working mixture was injected, and luminescence (i.e., PAM activity) was measured.

[3] = test system: feline umami (T1R1/T1R3) receptor; conditions: cited from earlier work
Human CaSR = biological target: T2, Human CaSR (Homo sapiens, UniProt P41180); conditions: Yes/No; cited from earlier work
T2 sequence (P41180 20-1078): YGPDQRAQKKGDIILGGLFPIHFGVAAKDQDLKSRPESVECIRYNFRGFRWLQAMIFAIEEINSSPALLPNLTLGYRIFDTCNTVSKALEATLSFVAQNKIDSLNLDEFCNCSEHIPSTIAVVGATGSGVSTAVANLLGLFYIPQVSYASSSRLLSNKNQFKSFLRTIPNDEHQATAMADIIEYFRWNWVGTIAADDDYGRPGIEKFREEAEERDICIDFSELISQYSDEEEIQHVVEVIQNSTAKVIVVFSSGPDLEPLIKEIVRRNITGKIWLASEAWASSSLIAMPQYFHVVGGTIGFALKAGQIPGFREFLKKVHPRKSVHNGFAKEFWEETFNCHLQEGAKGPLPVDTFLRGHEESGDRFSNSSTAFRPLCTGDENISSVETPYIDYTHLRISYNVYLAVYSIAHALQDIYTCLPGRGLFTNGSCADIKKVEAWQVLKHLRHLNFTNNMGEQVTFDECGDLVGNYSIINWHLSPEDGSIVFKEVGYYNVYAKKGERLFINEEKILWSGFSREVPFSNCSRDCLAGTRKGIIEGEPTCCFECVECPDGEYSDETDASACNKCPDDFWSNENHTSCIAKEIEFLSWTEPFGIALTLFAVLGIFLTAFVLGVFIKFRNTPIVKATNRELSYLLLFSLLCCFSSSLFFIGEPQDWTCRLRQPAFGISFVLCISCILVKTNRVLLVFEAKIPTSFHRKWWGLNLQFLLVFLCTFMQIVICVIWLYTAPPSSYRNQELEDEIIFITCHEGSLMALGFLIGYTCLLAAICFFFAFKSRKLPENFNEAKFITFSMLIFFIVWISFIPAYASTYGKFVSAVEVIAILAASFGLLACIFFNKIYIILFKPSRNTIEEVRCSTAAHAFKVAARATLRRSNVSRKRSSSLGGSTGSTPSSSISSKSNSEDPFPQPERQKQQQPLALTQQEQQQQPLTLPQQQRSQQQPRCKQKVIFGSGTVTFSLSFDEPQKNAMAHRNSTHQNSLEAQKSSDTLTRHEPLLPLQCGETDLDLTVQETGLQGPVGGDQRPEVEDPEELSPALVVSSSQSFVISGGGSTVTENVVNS

[4] = agonist mode, read-out: EC50 (Agonist)
[5] = double-injection protocol, agonist mode and PAM mode

## [Ca] [Calcium]
Feline CaSR (f:CaSR) [1]; [4]
  EC50: 1620 µM
Feline CaSR (f:CaSR) [1]; [5]
  Activity Type: Agonist
Feline CaSR (f:CaSR) [2]; listed as Ca2^+
  EC50: 1300 µM
Feline CaSR (f:CaSR) [2]; listed as Ca^2+
  EC50: 1300 µM and 1500 µM

## N=C(N)NCCC[C@H](N)C(=O)O [L-Arginine]
Feline CaSR (f:CaSR) [2]
  Activity Type: PAM EC50 of Ca^2+ moved from 1.5 mM to 0.72 mM in presence of 10 mM L-Arginine

## NCCCC[C@H](N)C(=O)O [L-Lysine]
Feline CaSR (f:CaSR) [2]
  Activity Type: PAM EC50 of Ca^2+ moved from 1.5 mM to 0.72 mM in presence of 10 mM L-Lysine

## N[C@@H](Cc1ccccc1)C(=O)O [L-Phenylalanine]
Feline CaSR (f:CaSR) [1]; Yes/No
  Feline CaSR agonist: do not activate
Feline CaSR (f:CaSR) [2]; single-injection PAM mode
  Activity Type: PAMs and PAM
[3]
  Comments: Umami-active for cats: umami-active

## N[C@@H](Cc1c[nH]c2ccccc12)C(=O)O [L-Tryptophan]
Feline CaSR (f:CaSR) [1]; Yes/No
  Feline CaSR agonist: do not activate
Feline CaSR (f:CaSR) [2]; single-injection PAM mode
  Activity Type: PAMs and PAM
[3]
  Comments: Umami-active for cats: umami-active

## C[C@H](N)C(=O)O [L-alanine]
Feline CaSR (f:CaSR) [1]; Yes/No
  Feline CaSR agonist: do not activate and No
Human CaSR
  Human CaSR agonist: Yes
[3]
  Comments: Umami-active for cats: Umami-active

## N[C@@H](Cc1c[nH]cn1)C(=O)O [L-histidine]
Feline CaSR (f:CaSR) [1]; Yes/No
  Feline CaSR agonist: do not activate and No
Human CaSR
  Human CaSR agonist: Yes
[3]
  Comments: Umami-active for cats: Umami-active

## NC[C@@H]1O[C@H](O[C@H]2[C@@H](O)[C@H](O[C@@H]3[C@@H](O)[C@H](N)C[C@H](N)[C@H]3O[C@H]3O[C@H](CN)[C@@H](O)[C@H](O)[C@H]3N)O[C@@H]2CO)[C@H](N)[C@@H](O)[C@@H]1O [Neomycin, reference compound]
Feline CaSR (f:CaSR) [1]
  Activity Type: Agonist EC50 1.87 mM
  EC50: 1870 µM

## N[C@@H](Cc1ccc(OP(=O)(O)O)cc1)C(=O)O [O-phospho-L-tyrosine]
Feline CaSR (f:CaSR) [1]; [5]
  Activity Type: Agonist

## CC[C@H](NC(=O)CC[C@H](N)C(=O)O)C(=O)NCC(=O)O [Ophthalmic Acid] (γGlu-[Abu]-Gly-OH)
Feline CaSR (f:CaSR) [1]; [4]
  EC50: 2660 µM
Feline CaSR (f:CaSR) [1]; [5]
  Activity Type: Agonist

## NC[C@@H]1O[C@H](O[C@H]2[C@@H](O)[C@H](O[C@@H]3[C@@H](O)[C@H](N)C[C@H](N)[C@H]3O[C@H]3O[C@H](CO)[C@@H](O)[C@H](O)[C@H]3N)O[C@@H]2CO)[C@H](N)[C@@H](O)[C@@H]1O [Paromomycin, reference compound]
Feline CaSR (f:CaSR) [1]; [5]
  Activity Type: Agonist

## [Pr] [Praseodymium]
Feline CaSR (f:CaSR) [1]; [4]
  EC50: 398 µM
Feline CaSR (f:CaSR) [1]; [5]
  Activity Type: Agonist

## NCCCCN [Putrescine]
Feline CaSR (f:CaSR) [1]
  Feline CaSR agonist: No
Human CaSR
  Human CaSR agonist: Yes

## NC[C@H]1O[C@H](O[C@H]2[C@H](O[C@@H]3O[C@H](CO)[C@@H](O)[C@H]3O)[C@@H](O)[C@H](N)C[C@@H]2N)[C@H](N)[C@@H](O)[C@@H]1O [Ribostamycin, reference compound]
Feline CaSR (f:CaSR) [1]; [5]
  Activity Type: Agonist

## N[C@@H](CCC(=O)N[C@@H](CSCCO)C(=O)NCC(=O)O)C(=O)O [S-(2-Hydroxyethyl)glutathione]
Feline CaSR (f:CaSR) [1]; [5]
  Activity Type: Agonist

## CSC[C@H](NC(=O)CC[C@H](N)C(=O)O)C(=O)NCC(=O)O [S-Methylglutathione]
Feline CaSR (f:CaSR) [1]; [5]
  Activity Type: Agonist

## C[Se]C[C@H](N)C(=O)O [Se-(Methyl)selenocysteine]
Feline CaSR (f:CaSR) [1]; [4]
  EC50: 4470 µM
Feline CaSR (f:CaSR) [1]; [5]
  Activity Type: Agonist

## CN[C@@H]1[C@@H](O)[C@@H](O[C@@H]2[C@@H](O)[C@H](O[C@H]3OC(CN)=CC[C@H]3N)[C@@H](N)C[C@H]2N)OC[C@]1(C)O [Sisomicin, reference compound]
Feline CaSR (f:CaSR) [1]; [5]
  Activity Type: Agonist

## NCCCCNCCCN [Spermidine]
Feline CaSR (f:CaSR) [1]; [5]
  Activity Type: Agonist

## NCCCNCCCCNCCCN [Spermine]
Feline CaSR (f:CaSR) [1]
  Activity Type: Agonist

## [Sr+2] [Strontium]
Feline CaSR (f:CaSR) [1]; [5]
  Activity Type: Agonist

## COC(=O)C(NC1CCc2c(F)cccc21)c1cccc(C#N)c1 (stereo not drawn) [methyl 2-(3-cyanophenyl)-2-((4-fluoro-2,3-dihydro-1H-inden-1-yl)amino)acetate]
Feline CaSR (f:CaSR) [1]; PAM mode, CaCl2 injected at EC20, read-out: EC50 (PAM)
  EC50: 58.9 µM
Feline CaSR (f:CaSR) [1]; [5]
  Activity Type: PAM

## NC(CCC(=O)NC(Cc1c[nH]c2ccccc12)C(=O)O)C(=O)O [γ-D-Glu-Trp, H-gamma-D-Glu-Trp-OH]
Feline CaSR (f:CaSR) [1]; [4]
  EC50: 4200 µM
Feline CaSR (f:CaSR) [1]; [5]
  Activity Type: Agonist

## C[C@H](NC(=O)CC[C@H](N)C(=O)O)C(=O)O [γ-Glu-Ala, L-gamma-Glutamyl-L-alanine]
Feline CaSR (f:CaSR) [1]; [5]
  Activity Type: Agonist

## N[C@@H](CCC(=O)N[C@@H](Cc1ccccc1)C(=O)O)C(=O)O [γ-Glu-Phe]
Feline CaSR (f:CaSR) [1]; [4]
  EC50: 2320 µM
Feline CaSR (f:CaSR) [1]; [5]
  Activity Type: Agonist

## N[C@@H](CCC(=O)N[C@@H](Cc1ccc(O)cc1)C(=O)O)C(=O)O [γ-Glu-Tyr]
Feline CaSR (f:CaSR) [1]; [5]
  Activity Type: Agonist

## CC(C)[C@H](NC(=O)CC[C@H](N)C(=O)O)C(=O)NCC(=O)O [γ-Glu-Val-Gly]
Feline CaSR (f:CaSR) [1]; [4]
  EC50: 4220 µM
Feline CaSR (f:CaSR) [1]; [5]
  Activity Type: Agonist

## CC(C)[C@H](NC(=O)CC[C@H](N)C(=O)O)C(=O)O [γ-Glu-Val]
Feline CaSR (f:CaSR) [1]; [5]
  Activity Type: Agonist

## Geneticin [reference compound]
Feline CaSR (f:CaSR) [1]; [5]
  Activity Type: Agonist

## Poly-L-arginine
Feline CaSR (f:CaSR) [1]
  Activity Type: Agonist EC50 1.01 uM
Feline CaSR (f:CaSR) [1]; read-out: EC50 (Agonist)
  EC50: 1.01 µM

## Poly-L-lysine
Feline CaSR (f:CaSR) [1]
  Activity Type: Agonist

## Poly-L-ornithine
Feline CaSR (f:CaSR) [1]
  Activity Type: Agonist EC50 0.240 mM
Feline CaSR (f:CaSR) [1]; read-out: EC50 (Agonist)
  EC50: 240 µM

## Terbium
Feline CaSR (f:CaSR) [1]; [4]
  EC50: 175 µM
Feline CaSR (f:CaSR) [1]; [5]
  Activity Type: Agonist

## Tobramycin [reference compound]
Feline CaSR (f:CaSR) [1]; [5]
  Activity Type: PAM
